Measurements published in the supplement of paper PMC10307832.

Assays:
Experiment in all cases: relative viability (nuclei count vs DMSO), 5 days (fraction); higher = more cells survive
[1] = system: 201T
Method in brief: (§1)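 Each reported value is a median over duplicate plates. It expresses relative viability: treated-well nuclei count divided by vehicle-well nuclei count. Lung cancer cell lines in 1536-well plates were dosed by pin tool a day after seeding, alone with one drug or with a fixed anchor-drug dose plus five library-drug doses (not always all listed) in √10 steps, and nuclei were counted after 5 days.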

[2] = system: ABC-1
Method in brief: as §1

[3] = system: BEN
Method in brief: as §1

[4] = system: CAL-12T
Method in brief: as §1

[5] = system: COR-L 105
Method in brief: as §1

[6] = system: EKVX
Method in brief: as §1

[7] = system: HARA
Method in brief: as §1

[8] = system: LK-2
Method in brief: as §1

[9] = system: LOU-NH91
Method in brief: as §1

[10] = system: NCI-H1437
Method in brief: as §1

[11] = system: NCI-H1650
Method in brief: as §1

[12] = system: NCI-H1666
Method in brief: as §1

[13] = system: NCI-H2009
Method in brief: as §1

[14] = system: NCI-H2170
Method in brief: as §1

[15] = system: NCI-H3122
Method in brief: as §1

[16] = system: NCI-H441
Method in brief: as §1

[17] = system: NCI-H460
Method in brief: as §1

[18] = system: NCI-H661
Method in brief: as §1

[19] = system: NCI-H727
Method in brief: as §1

[20] = system: PC-14
Method in brief: as §1

[21] = system: SW 900
Method in brief: as §1

O=c1cc(N2CCOCC2)oc2c(-c3cccc4c3sc3ccccc34)cccc12 + CCNC(=O)c1noc(-c2cc(C(C)C)c(O)cc2O)c1-c1ccc(CN2CCOCC2)cc1 [Luminespib] (partner 0.01 µM)
relative viability ([1]; first compound 0.01 µM): 0.961
relative viability ([1]; first compound 0.03162 µM): 1.1
relative viability ([1]; first compound 0.1 µM): 1.03
relative viability ([1]; first compound 0.3162 µM): 1.02
relative viability ([1]; first compound 1 µM): 0.996
relative viability ([2]; first compound 0.01 µM): 0.458
relative viability ([2]; first compound 0.03162 µM): 0.452
relative viability ([2]; first compound 0.1 µM): 0.796
relative viability ([2]; first compound 0.3162 µM): 0.501
relative viability ([2]; first compound 1 µM): 0.53
relative viability ([3]; first compound 0.01 µM): 0.298
relative viability ([3]; first compound 0.03162 µM): 0.359
relative viability ([3]; first compound 0.1 µM): 0.236
relative viability ([3]; first compound 0.3162 µM): 0.497
relative viability ([3]; first compound 1 µM): 0.318
relative viability ([4]; first compound 0.01 µM): 0.723
relative viability ([4]; first compound 0.03162 µM): 0.621
relative viability ([4]; first compound 0.1 µM): 0.292
relative viability ([4]; first compound 0.3162 µM): 0.31
relative viability ([4]; first compound 1 µM): 0.527
relative viability ([5]; first compound 0.01 µM): 0.738
relative viability ([5]; first compound 0.03162 µM): 0.739
relative viability ([5]; first compound 0.1 µM): 0.758
relative viability ([5]; first compound 0.3162 µM): 0.754
relative viability ([5]; first compound 1 µM): 0.603
relative viability ([6]; first compound 0.01 µM): 0.9
relative viability ([6]; first compound 0.03162 µM): 0.872
relative viability ([6]; first compound 0.1 µM): 0.878
relative viability ([6]; first compound 0.3162 µM): 0.917
relative viability ([6]; first compound 1 µM): 0.891
relative viability ([7]; first compound 0.01 µM): 0.682
relative viability ([7]; first compound 0.03162 µM): 0.679
relative viability ([7]; first compound 0.1 µM): 0.806
relative viability ([7]; first compound 0.3162 µM): 0.771
relative viability ([7]; first compound 1 µM): 0.905
relative viability ([8]; first compound 0.01 µM): 0.181
relative viability ([8]; first compound 0.03162 µM): 0.217
relative viability ([8]; first compound 0.1 µM): 0.198
relative viability ([8]; first compound 0.3162 µM): 0.176
relative viability ([8]; first compound 1 µM): 0.139
relative viability ([9]; first compound 0.01 µM): 0.352
relative viability ([9]; first compound 0.03162 µM): 0.318
relative viability ([9]; first compound 0.1 µM): 0.33
relative viability ([9]; first compound 0.3162 µM): 0.373
relative viability ([9]; first compound 1 µM): 0.36
relative viability ([10]; first compound 0.01 µM): 0.835
relative viability ([10]; first compound 0.03162 µM): 1.03
relative viability ([10]; first compound 0.1 µM): 1.1
relative viability ([10]; first compound 0.3162 µM): 1.08
relative viability ([10]; first compound 1 µM): 1.04
relative viability ([11]; first compound 0.01 µM): 0.211
relative viability ([11]; first compound 0.03162 µM): 0.169
relative viability ([11]; first compound 0.1 µM): 0.196
relative viability ([11]; first compound 0.3162 µM): 0.203
relative viability ([11]; first compound 1 µM): 0.191
relative viability ([12]; first compound 0.01 µM): 0.889
relative viability ([12]; first compound 0.03162 µM): 1.01
relative viability ([12]; first compound 0.1 µM): 0.995
relative viability ([12]; first compound 0.3162 µM): 0.969
relative viability ([12]; first compound 1 µM): 0.93
relative viability ([13]; first compound 0.01 µM): 0.931
relative viability ([13]; first compound 0.03162 µM): 0.899
relative viability ([13]; first compound 0.1 µM): 0.995
relative viability ([13]; first compound 0.3162 µM): 0.962
relative viability ([13]; first compound 1 µM): 0.97
relative viability ([14]; first compound 0.01 µM): 0.445
relative viability ([14]; first compound 0.03162 µM): 0.668
relative viability ([14]; first compound 0.1 µM): 0.654
relative viability ([14]; first compound 0.3162 µM): 0.548
relative viability ([14]; first compound 1 µM): 0.744
relative viability ([15]; first compound 0.01 µM): 0.073
relative viability ([15]; first compound 0.03162 µM): 0.101
relative viability ([15]; first compound 0.1 µM): 0.0916
relative viability ([15]; first compound 0.3162 µM): 0.0864
relative viability ([15]; first compound 1 µM): 0.0779
relative viability ([16]; first compound 0.01 µM): 0.334
relative viability ([16]; first compound 0.03162 µM): 0.406
relative viability ([16]; first compound 0.1 µM): 0.357
relative viability ([16]; first compound 0.3162 µM): 0.417
relative viability ([16]; first compound 1 µM): 0.454
relative viability ([17]; first compound 0.01 µM): 0.037
relative viability ([17]; first compound 0.03162 µM): 0.0402
relative viability ([17]; first compound 0.1 µM): 0.0368
relative viability ([17]; first compound 0.3162 µM): 0.035
relative viability ([17]; first compound 1 µM): 0.0452
relative viability ([18]; first compound 0.01 µM): 0.86
relative viability ([18]; first compound 0.03162 µM): 0.952
relative viability ([18]; first compound 0.1 µM): 0.948
relative viability ([18]; first compound 0.3162 µM): 0.943
relative viability ([18]; first compound 1 µM): 0.888
relative viability ([19]; first compound 0.01 µM): 0.324
relative viability ([19]; first compound 0.03162 µM): 0.399
relative viability ([19]; first compound 0.1 µM): 0.375
relative viability ([19]; first compound 0.3162 µM): 0.356
relative viability ([19]; first compound 1 µM): 0.416
relative viability ([20]; first compound 0.03162 µM): 0.151
relative viability ([20]; first compound 0.3162 µM): 0.197
relative viability ([20]; first compound 1 µM): 0.135
relative viability ([21]; first compound 0.01 µM): 0.203
relative viability ([21]; first compound 0.03162 µM): 0.186
relative viability ([21]; first compound 0.1 µM): 0.173
relative viability ([21]; first compound 0.3162 µM): 0.196
relative viability ([21]; first compound 1 µM): 0.176
